# Results reported in patent publication US5202315A, “Cephalosporin compounds” (Lucky, Ltd., priority 1989, dated 1993).
# Where two headings read alike, the source gives them in different places.
# What was measured:
# [1] = system: Staphylococcus aureus ATCC 10537; assay: Antibacterial activity, MIC; assay type: cell-based; conditions: ATCC10537, ATCC 10537, agar two-fold dilution, 37° C., 20 hours, read-out: MIC
# Procedure, shortened: (§1)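 The compound is dispersed into Mueller-Hinton agar across a two-fold dilution series. Each strain is applied as 2 μl of a 10^7 CFU/ml suspension and grown 20 hours at 37 °C.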
# [2] = system: Pseudomonas aeruginosa ATCC 25619; assay: Antibacterial activity, MIC; assay type: cell-based; conditions: ATCC25619, ATCC 25619, agar two-fold dilution, 37° C., 20 hours, read-out: MIC
# Procedure, shortened: as §1
# [3] = system: Shigella flexneri ATCC 11836; assay: Antibacterial activity, MIC; assay type: cell-based; conditions: ATCC11836, agar two-fold dilution, 37° C., 20 hours
# Procedure, shortened: as §1
# [4] = system: Bacillus cereus ATCC 11778; assay: Antibacterial activity, MIC; assay type: cell-based; conditions: ATCC11778, ATCC 11778, agar two-fold dilution, 37° C., 20 hours, read-out: MIC
# Procedure, shortened: as §1
# [5] = system: Proteus vulgaris ATCC 6059; assay: Antibacterial activity, MIC; assay type: cell-based; conditions: ATCC6059, ATCC 6059, agar two-fold dilution, 37° C., 20 hours, read-out: MIC
# Procedure, shortened: as §1
# [6] = system: Escherichia coli ATCC 10536; assay: Antibacterial activity, MIC; assay type: cell-based; conditions: ATCC10536, agar two-fold dilution, 37° C., 20 hours
# Procedure, shortened: as §1
# [7] = system: Providencia rettgeri ATCC 9250; assay: Antibacterial activity, MIC; assay type: cell-based; conditions: ATCC9250, agar two-fold dilution, 37° C., 20 hours
# Procedure, shortened: as §1
# [8] = system: Micrococcus luteus ATCC 9341; assay: Antibacterial activity, MIC; assay type: cell-based; conditions: ATCC9341, ATCC 9341, agar two-fold dilution, 37° C., 20 hours, read-out: MIC
# Procedure, shortened: as §1
# [9] = system: Proteus mirabilis ATCC 25933; assay: Antibacterial activity, MIC; assay type: cell-based; conditions: ATCC25933, ATCC 25933, agar two-fold dilution, 37° C., 20 hours, read-out: MIC
# Procedure, shortened: as §1
# [10] = system: Shigella sonnei ATCC 11060; assay: Antibacterial activity, MIC; assay type: cell-based; conditions: ATCC11060, ATCC 11060, agar two-fold dilution, 37° C., 20 hours, read-out: MIC
# Procedure, shortened: as §1
# [11] = system: Bacillus megaterium ATCC 9885; assay: Antibacterial activity, MIC; assay type: cell-based; conditions: Priestia megaterium, ATCC9885; ATCC 9885; agar two-fold dilution, 37° C., 20 hours; read-out: MIC
# Procedure, shortened: as §1
# [12] = system: Staphylococcus aureus ATCC 6538p; assay: Antibacterial activity, MIC; assay type: cell-based; conditions: ATCC6538P, ATCC 6538p, agar two-fold dilution, 37° C., 20 hours, read-out: MIC
# Procedure, shortened: as §1
# [13] = system: Citrobacter freundii ATCC 8090; assay: Antibacterial activity, MIC; assay type: cell-based; conditions: ATCC8090, ATCC 8090, agar two-fold dilution, 37° C., 20 hours, read-out: MIC
# Procedure, shortened: as §1
# [14] = system: Morganella morganii ATCC 8076h; assay: Antibacterial activity, MIC; assay type: cell-based; conditions: ATCC8076H, agar two-fold dilution, 37° C., 20 hours
# Procedure, shortened: as §1
# [15] = system: Klebsiella pneumoniae ATCC 10031; assay: Antibacterial activity, MIC; assay type: cell-based; conditions: ATCC10031, ATCC 10031, agar two-fold dilution, 37° C., 20 hours, read-out: MIC
# Procedure, shortened: as §1
# [16] = system: Enterobacter aerogenes ATCC 29751; assay: Antibacterial activity, MIC; assay type: cell-based; conditions: Klebsiella aerogenes, ATCC29751; ATCC 29751; agar two-fold dilution, 37° C., 20 hours; read-out: MIC
# Procedure, shortened: as §1
# [17] = system: Serratia marcescens ATCC 27117; assay: Antibacterial activity, MIC; assay type: cell-based; conditions: ATCC27117, ATCC 27117, agar two-fold dilution, 37° C., 20 hours, read-out: MIC
# Procedure, shortened: as §1
# [18] = system: Salmonella typhimurium ATCC 14028; assay: Antibacterial activity, MIC; assay type: cell-based; conditions: Salmonella enterica; ATCC 14028; agar two-fold dilution, 37° C., 20 hours; read-out: MIC
# Procedure, shortened: as §1
# [19] = system: Escherichia coli ATCC 25922; assay: Antibacterial activity, MIC; assay type: cell-based; conditions: ATCC25922, agar two-fold dilution, 37° C., 20 hours
# Procedure, shortened: as §1
# [20] = system: Pseudomonas aeruginosa ATCC 27853; assay: Antibacterial activity, MIC; assay type: cell-based; conditions: ATCC27853, ATCC 27853, agar two-fold dilution, 37° C., 20 hours, read-out: MIC
# Procedure, shortened: as §1
# [21] = system: Pseudomonas aeruginosa ATCC 10145; assay: Antibacterial activity, MIC; assay type: cell-based; conditions: ATCC10145, ATCC 10145, agar two-fold dilution, 37° C., 20 hours, read-out: MIC
# Procedure, shortened: as §1
# [22] = system: Enterobacter cloacae ATCC 27508; assay: Antibacterial activity, MIC; assay type: cell-based; conditions: ATCC27508, ATCC 27508, agar two-fold dilution, 37° C., 20 hours, read-out: MIC
# Procedure, shortened: as §1
# [23] = system: Staphylococcus epidermidis ATCC 12228; assay: Antibacterial activity, MIC; assay type: cell-based; conditions: ATCC12228, ATCC 12228, agar two-fold dilution, 37° C., 20 hours, read-out: MIC
# Procedure, shortened: as §1
# [24] = system: Acinetobacter calcoaceticus ATCC 15473; assay: Antibacterial activity, MIC; assay type: cell-based; conditions: ATCC15473, ATCC 15473, agar two-fold dilution, 37° C., 20 hours, read-out: MIC
# Procedure, shortened: as §1
# Klebsiella pneumoniae = assay: Antibacterial activity against clinically isolated strains, MIC; assay type: cell-based; conditions: 10 clinical isolates, broth microdilution test; for MIC90: read-out: MIC 90%
# [25] = system: Staphylococcus aureus methicillin susceptible; assay: as above; assay type: cell-based; conditions: methicillin susceptible, 42 clinical isolates, broth microdilution test; for MIC90: read-out: MIC 90%
# [26] = In-vivo absorbency (plasma concentrations & pharmacokinetic parameters); set-up: species or system SD rat (male); conditions: plasma, SD male rat, iv 20 mg/kg; for concentration at 1 h: 60 min; for concentration at 1 h / concentration at 2 h: read-out: Plasma Conc.; for concentration at 2 h: 120 min; for AUC / half-life: two compartment model; for half-life: rat, iv, 20 mg/kg
# Source text: The blood samples from the femoral vein of the rats were taken every hour after administration, and analyzed by bio-assay(agar well method).
# Tested animal: SD male Rat (220~340 g)
Structure (SMILES),MIC [1],MIC [2],MIC [3],MIC [4],MIC [5],MIC [6],MIC [7],MIC [8],MIC [9],MIC [10],MIC [11],MIC [12],MIC [13],MIC [14],MIC [15],MIC [16],MIC [17],MIC [18],MIC [19],MIC [20],further results
CC(O/N=C(\C(=O)NC1C(=O)N2C(C(=O)[O-])=C(CSc3nc(N)cc(N)[n+]3C)CSC12)c1csc(N)n1)C(=O)O (stereo not drawn) [Compound I-4],2 µg/mL,2 µg/mL,0.031 µg/mL,> 128 µg/mL,0.031 µg/mL,0.063 µg/mL,≤ 0.008 µg/mL,0.5 µg/mL,0.031 µg/mL,0.031 µg/mL,1 µg/mL,4 µg/mL,0.063 µg/mL,≤ 0.008 µg/mL,0.031 µg/mL,1 µg/mL,0.063 µg/mL,0.13 µg/mL,0.031 µg/mL,1 µg/mL,MIC [21]: 2 µg/mL; MIC [22]: 0.016 µg/mL; MIC [23]: 2 µg/mL; MIC [24]: 4 µg/mL; MIC50 (Klebsiella pneumoniae): 0.031 µg/mL; MIC90 (Klebsiella pneumoniae): 0.13 µg/mL; MIC50 [25]: 4 µg/mL; MIC90 [25]: 4 µg/mL; concentration at 1 h [26]: 2600 ng/mL; concentration at 2 h [26]: 400 ng/mL; AUC [26]: 18600 ng·h/mL; half-life ([26]; read-out: T1/2 (α)): 2 min; half-life ([26]; read-out: T1/2 (β)): 26 min
CC[n+]1c(N)cc(N)nc1SCC1=C(C(=O)[O-])N2C(=O)C(NC(=O)/C(=N\OC(C)C(=O)O)c3csc(N)n3)C2SC1 (stereo not drawn) [Compound I-5],2 µg/mL,1 µg/mL,0.031 µg/mL,128 µg/mL,0.031 µg/mL,0.063 µg/mL,≤ 0.008 µg/mL,0.25 µg/mL,0.031 µg/mL,0.031 µg/mL,1 µg/mL,2 µg/mL,0.063 µg/mL,≤ 0.008 µg/mL,0.031 µg/mL,0.5 µg/mL,0.063 µg/mL,0.13 µg/mL,0.063 µg/mL,1 µg/mL,MIC [21]: 2 µg/mL; MIC [22]: 0.016 µg/mL; MIC [23]: 1 µg/mL; MIC [24]: 4 µg/mL; MIC50 (Klebsiella pneumoniae): 0.063 µg/mL; MIC90 (Klebsiella pneumoniae): 0.25 µg/mL; MIC50 [25]: 4 µg/mL; MIC90 [25]: 4 µg/mL; concentration at 1 h [26]: 9700 ng/mL; concentration at 2 h [26]: 3000 ng/mL; AUC [26]: 39000 ng·h/mL; half-life ([26]; read-out: T1/2 (α)): 5 min; half-life ([26]; read-out: T1/2 (β)): 36 min
C[n+]1c(N)cc(N)nc1SCC1=C(C(=O)[O-])N2C(=O)C(NC(=O)/C(=N\OCC(=O)O)c3csc(N)n3)C2SC1 (stereo not drawn) [Compound I-7],2 µg/mL,2 µg/mL,≤ 0.008 µg/mL,128 µg/mL,0.016 µg/mL,0.016 µg/mL,≤ 0.008 µg/mL,0.5 µg/mL,0.016 µg/mL,0.016 µg/mL,0.5 µg/mL,2 µg/mL,0.031 µg/mL,≤ 0.008 µg/mL,0.016 µg/mL,0.5 µg/mL,0.016 µg/mL,0.063 µg/mL,0.016 µg/mL,2 µg/mL,MIC [21]: 4 µg/mL; MIC [22]: ≤ 0.008 µg/mL; MIC [23]: 1 µg/mL; MIC [24]: 4 µg/mL; MIC50 (Klebsiella pneumoniae): 0.016 µg/mL; MIC90 (Klebsiella pneumoniae): 0.031 µg/mL; MIC50 [25]: 4 µg/mL; MIC90 [25]: 4 µg/mL; concentration at 1 h [26]: 8100 ng/mL; concentration at 2 h [26]: 1900 ng/mL; AUC [26]: 35700 ng·h/mL; half-life ([26]; read-out: T1/2 (α)): 2 min; half-life ([26]; read-out: T1/2 (β)): 26 min
